Data as given in patent publication US9656996B2, “Fused heterocyclic compound, preparation method therefor, pharmaceutical composition, and uses thereof” (SHANGHAI YINGLI PHARMACEUTICAL CO., LTD., priority 2013, dated 2017).

Key:
PI3Kγ = PI3Kγ (Homo sapiens (Human), UniProt P48736); assay: PI3Kγ enzymatic inhibitory activity IC50 assay; format: biochemical; conditions: selectivity ratio
Procedure: (§1) 1. Buffer preparation: 50 mM HEPES, pH 7.5, 3 mM MgCl2, 1 mM EGTA, 100 mM NaCl, 0.03% CHAPS.
(§2) 2. The compound was formulated in 100% DMSO in a concentration gradient, and deposited to a 384-well plate with a final DMSO concentration of 1%.
(§3) 3. PI3Kα, PI3Kδ, PI3Kβ and PI3Kγ enzymes (purchased from EMD Millipore) were diluted to the optimal concentration with the following buffer: 50 mM HEPES, pH 7.5, 3 mM MgCl2, 1 mM EGTA, 100 mM NaCl, 0.03% CHAPS, 2 mM DTT, transferred to a 384-well plate and incubated with the compound for a certain time.
(§4) 4. The substrate was diluted to an optimal concentration with the following buffer: 50 mM HEPES, pH 7.5, 3 mM MgCl2, 1 mM EGTA, 100 mM NaCl, 0.03% CHAPS, 2 mM DTT, 50 μM PIP2, 25 μM ATP and added to the 384-well plate to initiate the reaction. PI3Kα, PI3Kβ and PI3Kγ were allowed to react for 1 h at room temperature, and PI3Kδ reacted for 2 hours at room temperature. Another 10 μL ADP-Glo Detection Reagent also needed to be added for PI3Kβ and PI3Kγ, and then equilibrated at room temperature for 30 minutes.
(§5) 5. Luminescence was read by using Flexstation, and the inhibition rate was calculated as the average value of two tests.

PI3Kα = PI3Kα (Homo sapiens (Human), UniProt P42336); assay: PI3Kα enzymatic inhibitory activity IC50 assay; format: biochemical; conditions: selectivity ratio
PI3Kα, sequence (P42336 whole entry, species assumed): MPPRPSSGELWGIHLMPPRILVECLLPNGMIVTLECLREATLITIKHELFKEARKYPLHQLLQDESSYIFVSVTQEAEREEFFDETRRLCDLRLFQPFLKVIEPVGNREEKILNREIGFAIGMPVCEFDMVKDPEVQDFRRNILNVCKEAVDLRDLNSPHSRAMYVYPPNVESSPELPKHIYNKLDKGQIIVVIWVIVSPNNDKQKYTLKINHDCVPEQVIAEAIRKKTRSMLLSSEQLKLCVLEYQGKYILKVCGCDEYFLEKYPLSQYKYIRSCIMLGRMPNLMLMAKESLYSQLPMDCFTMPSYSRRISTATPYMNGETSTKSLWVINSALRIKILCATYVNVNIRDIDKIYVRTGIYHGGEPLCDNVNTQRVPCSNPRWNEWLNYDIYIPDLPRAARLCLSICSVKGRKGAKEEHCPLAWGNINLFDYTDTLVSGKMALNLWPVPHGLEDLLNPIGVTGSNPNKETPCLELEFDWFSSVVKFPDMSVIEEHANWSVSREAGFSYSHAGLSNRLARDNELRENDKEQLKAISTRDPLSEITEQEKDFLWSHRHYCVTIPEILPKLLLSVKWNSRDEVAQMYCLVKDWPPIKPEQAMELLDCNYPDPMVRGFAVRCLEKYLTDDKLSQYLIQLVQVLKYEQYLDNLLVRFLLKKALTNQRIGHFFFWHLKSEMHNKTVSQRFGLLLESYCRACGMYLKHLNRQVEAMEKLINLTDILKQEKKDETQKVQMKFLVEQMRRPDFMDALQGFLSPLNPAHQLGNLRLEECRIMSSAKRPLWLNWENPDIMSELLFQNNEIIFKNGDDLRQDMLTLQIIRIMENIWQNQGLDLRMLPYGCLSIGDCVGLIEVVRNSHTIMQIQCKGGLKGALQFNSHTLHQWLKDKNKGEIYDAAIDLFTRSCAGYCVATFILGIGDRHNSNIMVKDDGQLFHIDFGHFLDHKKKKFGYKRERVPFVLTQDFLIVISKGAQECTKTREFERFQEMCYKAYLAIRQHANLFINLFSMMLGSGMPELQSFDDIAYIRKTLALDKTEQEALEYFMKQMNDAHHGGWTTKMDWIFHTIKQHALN
PI3Kα, sequence (P27986 whole entry partner, species assumed): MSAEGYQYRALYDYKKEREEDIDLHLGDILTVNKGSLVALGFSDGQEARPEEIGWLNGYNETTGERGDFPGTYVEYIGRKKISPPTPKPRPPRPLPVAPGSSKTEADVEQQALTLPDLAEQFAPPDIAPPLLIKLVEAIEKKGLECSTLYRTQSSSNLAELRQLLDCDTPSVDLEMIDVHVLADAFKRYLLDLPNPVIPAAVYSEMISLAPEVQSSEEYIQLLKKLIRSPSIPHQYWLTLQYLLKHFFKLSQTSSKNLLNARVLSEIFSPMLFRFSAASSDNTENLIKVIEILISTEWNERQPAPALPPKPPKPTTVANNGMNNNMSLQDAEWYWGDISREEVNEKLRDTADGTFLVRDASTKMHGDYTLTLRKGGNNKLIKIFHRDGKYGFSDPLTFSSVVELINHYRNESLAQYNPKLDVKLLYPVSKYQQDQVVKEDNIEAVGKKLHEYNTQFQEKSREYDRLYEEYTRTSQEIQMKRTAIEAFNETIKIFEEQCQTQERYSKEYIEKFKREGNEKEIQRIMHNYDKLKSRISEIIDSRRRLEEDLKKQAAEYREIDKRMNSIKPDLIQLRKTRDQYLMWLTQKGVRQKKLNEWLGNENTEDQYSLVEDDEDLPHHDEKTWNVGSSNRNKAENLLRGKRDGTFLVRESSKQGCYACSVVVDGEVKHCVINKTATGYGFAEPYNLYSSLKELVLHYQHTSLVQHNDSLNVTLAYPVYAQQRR
Procedure: as §1, §2, §3, §4, §5

PI3Kδ = PI3Kδ (Homo sapiens (Human), UniProt O00329); assay: PI3Kδ enzymatic inhibitory activity IC50 assay; format: biochemical; conditions: luminescence readout, 25 μM ATP, 50 μM PIP2, 2 hours at room temperature
PI3Kδ, sequence (O00329 whole entry, species assumed): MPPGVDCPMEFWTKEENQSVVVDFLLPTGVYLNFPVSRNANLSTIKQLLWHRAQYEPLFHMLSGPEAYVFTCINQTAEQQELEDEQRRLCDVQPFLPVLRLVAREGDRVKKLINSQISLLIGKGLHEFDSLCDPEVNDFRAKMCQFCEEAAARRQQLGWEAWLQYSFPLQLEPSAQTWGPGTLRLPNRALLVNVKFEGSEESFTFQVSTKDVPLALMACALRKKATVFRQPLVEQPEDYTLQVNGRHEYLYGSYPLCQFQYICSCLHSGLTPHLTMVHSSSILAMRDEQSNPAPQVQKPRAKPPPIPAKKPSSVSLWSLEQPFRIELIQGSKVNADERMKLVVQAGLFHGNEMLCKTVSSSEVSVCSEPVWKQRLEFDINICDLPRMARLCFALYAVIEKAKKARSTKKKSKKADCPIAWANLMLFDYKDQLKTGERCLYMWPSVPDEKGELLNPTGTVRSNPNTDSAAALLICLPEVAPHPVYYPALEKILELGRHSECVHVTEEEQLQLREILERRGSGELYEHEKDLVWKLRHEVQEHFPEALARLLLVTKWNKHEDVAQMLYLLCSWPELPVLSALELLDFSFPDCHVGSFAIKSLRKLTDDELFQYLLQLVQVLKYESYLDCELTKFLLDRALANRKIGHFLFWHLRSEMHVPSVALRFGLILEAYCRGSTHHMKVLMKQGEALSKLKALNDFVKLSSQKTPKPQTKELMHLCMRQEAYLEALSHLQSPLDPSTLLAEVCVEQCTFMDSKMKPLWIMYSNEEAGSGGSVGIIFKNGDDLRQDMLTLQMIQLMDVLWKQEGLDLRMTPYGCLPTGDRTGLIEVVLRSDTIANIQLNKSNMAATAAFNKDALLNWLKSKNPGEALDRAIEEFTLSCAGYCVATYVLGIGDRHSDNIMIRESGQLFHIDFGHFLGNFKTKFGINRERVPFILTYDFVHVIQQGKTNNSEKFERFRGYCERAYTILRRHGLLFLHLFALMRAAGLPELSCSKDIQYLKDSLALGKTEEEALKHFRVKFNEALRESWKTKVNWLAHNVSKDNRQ
PI3Kδ, sequence (P27986 whole entry partner, species assumed): as the sequence (P27986 whole entry partner, species assumed) above
Procedure: as §1, §2, §3, §4, §5

PI3Kβ = PI3Kβ (Homo sapiens (Human), UniProt P42338); assay: PI3Kβ enzymatic inhibitory activity IC50 assay; format: biochemical; conditions: selectivity ratio
PI3Kβ, sequence (P42338 whole entry, species assumed): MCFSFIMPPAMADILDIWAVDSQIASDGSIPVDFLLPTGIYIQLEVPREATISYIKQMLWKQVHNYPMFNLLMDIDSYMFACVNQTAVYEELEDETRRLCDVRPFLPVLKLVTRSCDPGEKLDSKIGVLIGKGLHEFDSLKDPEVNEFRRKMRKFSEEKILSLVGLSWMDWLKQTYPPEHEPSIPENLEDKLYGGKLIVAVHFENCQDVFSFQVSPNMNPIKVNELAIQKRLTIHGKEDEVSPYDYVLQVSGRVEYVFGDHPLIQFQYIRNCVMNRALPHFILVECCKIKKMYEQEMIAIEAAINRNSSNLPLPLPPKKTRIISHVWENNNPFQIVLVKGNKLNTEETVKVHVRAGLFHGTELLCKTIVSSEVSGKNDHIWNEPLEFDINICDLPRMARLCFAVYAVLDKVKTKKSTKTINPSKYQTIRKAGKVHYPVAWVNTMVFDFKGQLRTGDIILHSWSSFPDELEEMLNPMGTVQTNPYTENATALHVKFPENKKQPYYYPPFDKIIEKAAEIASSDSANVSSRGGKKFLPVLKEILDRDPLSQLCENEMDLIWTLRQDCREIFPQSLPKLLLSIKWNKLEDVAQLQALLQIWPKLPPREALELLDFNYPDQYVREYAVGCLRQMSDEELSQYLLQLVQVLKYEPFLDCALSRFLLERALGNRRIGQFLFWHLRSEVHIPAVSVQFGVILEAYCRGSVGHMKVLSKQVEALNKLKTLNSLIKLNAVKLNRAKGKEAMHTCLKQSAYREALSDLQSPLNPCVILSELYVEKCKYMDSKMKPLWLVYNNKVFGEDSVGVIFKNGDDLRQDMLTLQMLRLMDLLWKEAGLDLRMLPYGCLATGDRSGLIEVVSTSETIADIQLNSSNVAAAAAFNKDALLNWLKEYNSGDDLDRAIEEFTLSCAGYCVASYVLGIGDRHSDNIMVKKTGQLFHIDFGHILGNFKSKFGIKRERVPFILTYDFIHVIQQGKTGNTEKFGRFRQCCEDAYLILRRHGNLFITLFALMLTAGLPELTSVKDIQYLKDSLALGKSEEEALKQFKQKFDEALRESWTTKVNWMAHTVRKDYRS
PI3Kβ, sequence (P27986 whole entry partner, species assumed): as the sequence (P27986 whole entry partner, species assumed) above
Procedure: as §1, §2, §3, §4, §5

[1] = system: Raji cell TNF-α generation; assay: Inhibition of human Raji cell TNF-α generation induced by human IgM (ELISA); format: cell-based; conditions: Raji cells, IgM stimulation, 24 hours
Procedure: 1. Raji cell line (human Burkitt's lymphoma origin) (ATCC, Cat#CCL-86) was used.
2. Raji cells were applied onto the 96-well plate with 1×10^5/well.
3. The compounds to be screened were diluted to the corresponding test concentration, and added to the cell culture system 30 minutes prior to IgM stimulation.
4. 10 µg/ml IgM monoclonal antibody (JACKSON, Cat#109-006-129) was added to the cell culture system in order to stimulate the cells generating TNF-α.
5. After 24 hours, the amount of TNF-α produced by the cell line was determined by ELISA.
6. The inhibition rates at each concentration of the compound were calculated and plotted to calculate 50% inhibition rate (IC50), and the specific results were shown in table 3.

PI3Kγ, sequence (P48736 whole entry, species assumed): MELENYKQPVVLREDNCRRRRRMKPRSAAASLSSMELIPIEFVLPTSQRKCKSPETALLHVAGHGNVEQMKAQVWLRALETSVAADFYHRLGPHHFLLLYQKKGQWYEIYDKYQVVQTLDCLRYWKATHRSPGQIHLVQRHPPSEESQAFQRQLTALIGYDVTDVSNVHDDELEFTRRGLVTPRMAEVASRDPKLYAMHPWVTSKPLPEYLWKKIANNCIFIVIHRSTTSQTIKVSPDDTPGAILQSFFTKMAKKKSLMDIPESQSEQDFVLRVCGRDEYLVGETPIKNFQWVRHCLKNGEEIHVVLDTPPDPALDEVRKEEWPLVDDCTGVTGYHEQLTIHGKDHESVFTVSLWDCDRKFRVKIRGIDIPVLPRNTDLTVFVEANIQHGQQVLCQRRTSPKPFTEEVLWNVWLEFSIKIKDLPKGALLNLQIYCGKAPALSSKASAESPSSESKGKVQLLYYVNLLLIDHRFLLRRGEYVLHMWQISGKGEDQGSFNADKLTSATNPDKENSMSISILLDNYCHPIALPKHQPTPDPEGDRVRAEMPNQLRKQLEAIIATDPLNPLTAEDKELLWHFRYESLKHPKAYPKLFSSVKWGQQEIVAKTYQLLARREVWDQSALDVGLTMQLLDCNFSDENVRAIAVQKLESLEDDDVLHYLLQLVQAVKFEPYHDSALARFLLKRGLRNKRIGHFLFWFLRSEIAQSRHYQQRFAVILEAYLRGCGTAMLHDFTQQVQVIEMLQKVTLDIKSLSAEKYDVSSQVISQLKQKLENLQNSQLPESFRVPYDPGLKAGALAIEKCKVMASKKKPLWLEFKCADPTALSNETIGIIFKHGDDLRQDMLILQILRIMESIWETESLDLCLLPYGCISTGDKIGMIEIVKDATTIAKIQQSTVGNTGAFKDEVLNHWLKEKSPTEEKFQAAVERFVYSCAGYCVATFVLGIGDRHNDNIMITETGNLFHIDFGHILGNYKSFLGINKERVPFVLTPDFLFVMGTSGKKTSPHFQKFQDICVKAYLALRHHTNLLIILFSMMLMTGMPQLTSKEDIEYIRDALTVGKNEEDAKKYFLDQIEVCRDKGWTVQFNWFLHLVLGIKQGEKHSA

COc1ncc(-c2nc(N3CCOCC3)c3cc(CN4CCC(N5CCCCC5)CC4)ccc3n2)cc1NS(C)(=O)=O [Compound 15]
γ/δ (ratio of IC50 values against PI3Kγ to PI3Kδ) (PI3Kγ): >29 | α/δ (ratio of IC50 values against PI3Kα to PI3Kδ) (PI3Kα): 23 | IC50 (PI3Kδ): 345 nM | β/δ (ratio of IC50 values against PI3Kβ to PI3Kδ) (PI3Kβ): >29

COc1ncc(-c2nc(N3CCOCC3)nc3c(CN4CCC(N5CCCCC5=O)CC4)cc(F)cc23)cc1NS(C)(=O)=O [Compound 23]
γ/δ (ratio of IC50 values against PI3Kγ to PI3Kδ) (PI3Kγ): >625 | α/δ (ratio of IC50 values against PI3Kα to PI3Kδ) (PI3Kα): 79 | IC50 [1]: 88.7 nM | IC50 (PI3Kδ): 16 nM | β/δ (ratio of IC50 values against PI3Kβ to PI3Kδ) (PI3Kβ): 40

COc1ncc(-c2nc(N3CCOCC3)nc3c(OC4CCC(N5CCCCC5)CC4)cc(F)cc23)cc1NS(C)(=O)=O (centres unmarked) [Compound 36]
γ/δ (ratio of IC50 values against PI3Kγ to PI3Kδ) (PI3Kγ): >588 | α/δ (ratio of IC50 values against PI3Kα to PI3Kδ) (PI3Kα): 239 | IC50 [1]: 27 nM | IC50 (PI3Kδ): 17 nM | β/δ (ratio of IC50 values against PI3Kβ to PI3Kδ) (PI3Kβ): 366

COc1ncc(-c2nc(N3CCOCC3)nc3c(OC4CCC(N5CCCCC5)CC4)cc(F)cc23)cc1NS(C)(=O)=O (centres unmarked) [Compound 34]
γ/δ (ratio of IC50 values against PI3Kγ to PI3Kδ) (PI3Kγ): >549 | α/δ (ratio of IC50 values against PI3Kα to PI3Kδ) (PI3Kα): 202 | IC50 [1]: 66 nM | IC50 (PI3Kδ): 18.2 nM | β/δ (ratio of IC50 values against PI3Kβ to PI3Kδ) (PI3Kβ): 360

COc1ncc(-c2nc(N3CCOCC3)nc3c(OC4CC(C(C)(C)O)C4)cc(F)cc23)cc1NS(C)(=O)=O (centres unmarked) [Compound 37]
γ/δ (ratio of IC50 values against PI3Kγ to PI3Kδ) (PI3Kγ): >85 | α/δ (ratio of IC50 values against PI3Kα to PI3Kδ) (PI3Kα): 42 | IC50 (PI3Kδ): 117 nM | β/δ (ratio of IC50 values against PI3Kβ to PI3Kδ) (PI3Kβ): >85

COc1ncc(-c2nc(N3CCOCC3)nc3c(CN4CCC(N5CCCCC5)CC4)cc(F)cc23)cc1NS(C)(=O)=O [Compound 7]
γ/δ (ratio of IC50 values against PI3Kγ to PI3Kδ) (PI3Kγ): >322 | α/δ (ratio of IC50 values against PI3Kα to PI3Kδ) (PI3Kα): 130 | IC50 [1]: 34.8 nM | IC50 (PI3Kδ): 31 nM | β/δ (ratio of IC50 values against PI3Kβ to PI3Kδ) (PI3Kβ): 166

COc1ncc(-c2nc(N3CCOCC3)nc3c(CN4CCC(C(C)(C)O)CC4)cc(F)cc23)cc1NS(C)(=O)=O [Compound 10]
γ/δ (ratio of IC50 values against PI3Kγ to PI3Kδ) (PI3Kγ): >1000 | α/δ (ratio of IC50 values against PI3Kα to PI3Kδ) (PI3Kα): 320 | IC50 [1]: 66 nM | IC50 (PI3Kδ): 6.4 nM | β/δ (ratio of IC50 values against PI3Kβ to PI3Kδ) (PI3Kβ): 31

COc1ncc(-c2nc(N3CCOCC3)nc3c(OC4CCC(C(C)(C)O)CC4)cc(F)cc23)cc1NS(C)(=O)=O (centres unmarked) [Compound 28]
γ/δ (ratio of IC50 values against PI3Kγ to PI3Kδ) (PI3Kγ): >129 | α/δ (ratio of IC50 values against PI3Kα to PI3Kδ) (PI3Kα): 63 | IC50 (PI3Kδ): 77 nM | β/δ (ratio of IC50 values against PI3Kβ to PI3Kδ) (PI3Kβ): >129

COc1ncc(-c2nc(N3CCOCC3)c3sc(CN4CCC(N(C)C(C)C)CC4)c(C)c3n2)cc1NS(C)(=O)=O [Compound 16]
γ/δ (ratio of IC50 values against PI3Kγ to PI3Kδ) (PI3Kγ): >650 | α/δ (ratio of IC50 values against PI3Kα to PI3Kδ) (PI3Kα): 42 | IC50 [1]: 20.1 nM | IC50 (PI3Kδ): 15 nM | β/δ (ratio of IC50 values against PI3Kβ to PI3Kδ) (PI3Kβ): 341

COc1ncc(-c2nc(N3CCOCC3)nc3c(CN4CCC(N5CCCC5)CC4)cc(F)cc23)cc1NS(C)(=O)=O [Compound 8]
α/δ (ratio of IC50 values against PI3Kα to PI3Kδ) (PI3Kα): 292 | IC50 [1]: 28.4 nM | IC50 (PI3Kδ): 9.8 nM

COc1ncc(-c2nc(N3CCOCC3)nc3c(OCCN4CCCCC4)cc(F)cc23)cc1NS(C)(=O)=O [Compound 33]
α/δ (ratio of IC50 values against PI3Kα to PI3Kδ) (PI3Kα): 113 | IC50 [1]: 260 nM | IC50 (PI3Kδ): 47.1 nM

COc1ncc(-c2nc(N3CCOCC3)nc3c(OC4CN(C(=O)C(C)C)C4)cc(F)cc23)cc1NS(C)(=O)=O [Compound 39]
α/δ (ratio of IC50 values against PI3Kα to PI3Kδ) (PI3Kα): 58 | IC50 [1]: 108 nM | IC50 (PI3Kδ): 22 nM

COc1ncc(-c2nc(N3CCOCC3)nc3c(O[C@@H]4CCOC4)cc(F)cc23)cc1NS(C)(=O)=O [Compound 30]
α/δ (ratio of IC50 values against PI3Kα to PI3Kδ) (PI3Kα): 15 | IC50 [1]: 352 nM | IC50 (PI3Kδ): 41 nM

COc1ncc(-c2nc(N3CCOCC3)nc3c(OC4CCC(N5CCCCC5)CC4)cc(F)cc23)cc1NS(C)(=O)=O (centres unmarked) [Compound 35]
γ/δ (ratio of IC50 values against PI3Kγ to PI3Kδ) (PI3Kγ): >500 | α/δ (ratio of IC50 values against PI3Kα to PI3Kδ) (PI3Kα): 227 | IC50 [1]: 105 nM | IC50 (PI3Kδ): 20 nM | β/δ (ratio of IC50 values against PI3Kβ to PI3Kδ) (PI3Kβ): 322

COc1ncc(-c2nc(N3CCOCC3)nc3c(CN4CCC(OC)CC4)cccc23)cc1NS(C)(=O)=O [Compound 2]
α/δ (ratio of IC50 values against PI3Kα to PI3Kδ) (PI3Kα): 368 | IC50 [1]: 92.7 nM | IC50 (PI3Kδ): 17 nM

COc1ncc(-c2nc(N3CCOCC3)nc3c(OC4CN(C5CCOCC5)C4)cc(F)cc23)cc1NS(C)(=O)=O [Compound 38]
α/δ (ratio of IC50 values against PI3Kα to PI3Kδ) (PI3Kα): 28 | IC50 [1]: 32 nM | IC50 (PI3Kδ): 15.8 nM
